# According to patent US20240383891A1, “BENZIMIDAZOLE AND RELATED ANALOGS FOR INHIBITING YAP/TAZ-TEAD” (SpringWorks Therapeutics, Inc., priority 2023, published 2024):
# Assays:
# Type in all cases: cell-based
# NCI-H226 = experiment: mesothelioma cell line proliferation assay, NCI-H226; settings: Homo sapiens, 144 h; NCI-H226 mesothelioma cells, 6 days incubation, ATPlite cell viability
# Method: (§1) Mesothelioma cell lines, NCI-H226 and NCI-H2052 (both sourced from the ATCC cell culture collection) are plated in 96-well plates (Corning® 96 Well White Polystyrene Microplate clear flat bottom, white polystyrene (TC-Treated)), at 1500 cells/well in full medium (RPMI 1640 ATCC modification with L-glutamine, HEPES, Phenol Red, Sodium Pyruvate, High glucose, Low sodium bicarbonate and 10% fetal bovine serum). Cells are incubated overnight at 37° C. in an incubator with 5% CO2. Then compounds, dissolved in DMSO, are added in dose-response. Cells are incubated with compound dilutions for another 6 days at 37° C. in an incubator with 5% CO2. Cell viability is quantitated using the ATPlite kit (Perkin-Elmer) and the luminescence is read-out using an Envision instrument (Perkin-Elmer). The amount of relative light units produced using the ATPlite kit is used to calculate percent of inhibition. The activities of some example compounds are depicted in Table 4. The activity ranges A, B and C refer to EC50 values in the mesothelioma cell line proliferation assay as described as follows: “A”: EC50<1 μM; “B”: 1 μM s […] and “C”: EC50>10 μM; NT: not tested.
# NCI-H2052 = experiment: mesothelioma cell line proliferation assay, NCI-H2052; settings: Homo sapiens, 144 h; NCI-H2052 mesothelioma cells, 6 days incubation, ATPlite cell viability
# Method: as §1
# [1] = tested on: YAP/TAZ-TEAD transcription; experiment: reporter gene assay for measuring the inhibition of YAP/TAZ-TEAD transcription (TEAD-responsive element luciferase reporter in Hek293T cells); settings: Homo sapiens, HEK-293T; Hek293T cells transiently transfected with TEAD-responsive element luciferase reporter, 24 hours incubation
# Method: Example 21: Activity of compounds of the disclosure in a reporter gene assay for measuring the inhibition of YAP/TAZ-TEAD transcription Hek293T cells are cultured in DMEM supplemented with 10% fetal bovine serum, Sodium pyruvate, Sodium bicarbonate, L-glutamine. The cells are harvested and transiently transfected with TEAD-responsive element luciferase reporter. Transfected cells are plated in 384-well plate containing pre-diluted compounds. After 24 hours incubation at 37° C./5% CO2, assay plates were cooled to room temperature and levelled to an equal volume per well, prior to the addition of 25 uL luciferase substrate SteadyLite (Perkin Elmer)/well. The plate was shaken for 10 min at 600 rpm, centrifuged for 1 min at 500 rpm and measured with an Envision reader (PerkinElmer). The amount of relative light units produced by the TEAD reporter is used to calculate the percentage of inhibition. The percent of reporter inhibition was calculated in the presence of a positive control inhibitor (100% inhibition) versus a condition with the presence of the vehicle basal activity of the reporter (0% inhibition). The ability of a test compound to inhibit this activity was determined as: Percentage inhibition=[[…]((RLU determined in the presence of vehicle—RLU determined for sample with test compound present) divided by (RLU determined in the presence of vehicle—RLU determined for sample with positive control inhibitor))] *100.
# The activities of example compounds tested are depicted in Table 3. The activity ranges A, B and C refer to IC50 values in the reporter gene assay as follows: “A”: IC50<1 μM; “B”: 1 μM≤IC50 10 μM and “C”: IC50>10 μM; NT=not tested.
Compound,EC50 (NCI-H226),EC50 (NCI-H2052),IC50 [1]
"C=CC(=O)NCc1nc(-c2ccc(C(F)(F)F)cc2)c2ccccn12 [Cpd. No. 002, N-((1-(4-(trifluoromethyl)phenyl)imidazo[1,5-a]pyridin-3-yl)methyl)acrylamide]",< 1 µM,< 1 µM,< 1 µM
"O=C(O)C1CC(O)(c2nc(-c3ccc(C(F)(F)F)cc3)c3ccccn23)C1 (stereo not shown) [Cpd. No. 014, 3-hydroxy-3-(1-(4-(trifluoromethyl)phenyl)imidazo[1,5-a]pyridin-3-yl)cyclobutane-1-carboxylic acid]",–,–,> 10 µM
"CS(=O)(=O)NCc1nc(-c2ccc(C(F)(F)F)cc2)c2ccccn12 [Cpd. No. 004, N-((1-(4-(trifluoromethyl)phenyl)imidazo[1,5-a]pyridin-3-yl)methyl)methanesulfonamide]",–,–,> 10 µM
"O=c1[nH]nc(-c2nc(-c3ccc(C(F)(F)F)cc3)c3ccccn23)[nH]1 [Cpd. No. 029, 5-(1-(4-(trifluoromethyl)phenyl)imidazo[1,5-a]pyridin-3-yl)-2,4-dihydro-3H-1,2,4-triazol-3-one]",–,–,1 to 10 µM
"CN(CC(=O)O)c1nc(-c2ccc(C(F)(F)F)cc2)c2ccccn12 [Cpd. No. 024, N-methyl-N-(1-(4-(trifluoromethyl)phenyl)imidazo[1,5-a]pyridin-3-yl)glycine]",–,–,1 to 10 µM
"C=CC(=O)NCc1nc(-c2ccc(C(F)(F)F)cc2)n2cc(C(F)(F)F)ccc12 [Cpd. No. 009, N-((6-(trifluoromethyl)-3-(4-(trifluoromethyl)phenyl)imidazo[1,5-a]pyridin-1-yl)methyl)acrylamide]",< 1 µM,< 1 µM,< 1 µM
"CCC(=O)NCc1nc(-c2ccc(C(F)(F)F)cc2)c2ccccn12 [Cpd. No. 003, N-((1-(4-(trifluoromethyl)phenyl)imidazo[1,5-a]pyridin-3-yl)methyl)propionamide]",–,–,> 10 µM
"C=CC(=O)NCc1nc(C2CCC(F)(F)CC2)c2ccccn12 [Cpd. No. 026, N-((1-(4,4-difluorocyclohexyl)imidazo[1,5-a]pyridin-3-yl)methyl)acrylamide]",< 1 µM,< 1 µM,< 1 µM
"O=c1[nH]nc(-c2nc(-c3ccc(C(F)(F)F)cc3)c3ccccn23)o1 [Cpd. No. 025, 5-(1-(4-(trifluoromethyl)phenyl)imidazo[1,5-a]pyridin-3-yl)-1,3,4-oxadiazol-2(3H)-one]",< 1 µM,< 1 µM,< 1 µM
"O=C(O)[C@H]1C[C@H](c2nc(-c3ccc(C(F)(F)F)cc3)c3ccccn32)C1 [Cpd. No. 020, trans-3-(1-(4-(trifluoromethyl)phenyl)imidazo[1,5-a]pyridin-3-yl)cyclobutane-1-carboxylic acid]",–,–,< 1 µM
"CS(=O)(=O)NCc1nc(-c2ccc(C(F)(F)F)cc2)n2cc(C(F)(F)F)ccc12 [Cpd. No. 011, N-((6-(trifluoromethyl)-3-(4-(trifluoromethyl)phenyl)imidazo[1,5-a]pyridin-1-yl)methyl)methanesulfonamide]",–,–,> 10 µM
"O=c1[nH]c(-c2nc(-c3ccc(C(F)(F)F)cc3)c3ccccn23)no1 [Cpd. No. 028, 3-(1-(4-(trifluoromethyl)phenyl)imidazo[1,5-a]pyridin-3-yl)-1,2,4-oxadiazol-5(4H)-one]",–,–,< 1 µM
"O=Cc1ccc(-c2nc(-c3ccc(C(F)(F)F)cc3)c3ccccn23)cc1O [Cpd. No. 013, 2-hydroxy-4-(1-(4-(trifluoromethyl)phenyl)imidazo[1,5-a]pyridin-3-yl)benzaldehyde]",–,–,< 1 µM
"O=C(O)[C@H]1C[C@H]1c1nc(-c2ccc(C(F)(F)F)cc2)c2ccccn12 (racemic) [Cpd. No. 018, cis-2-(1-(4-(trifluoromethyl)phenyl)imidazo[1,5-a]pyridin-3-yl)cyclopropane-1-carboxylic acid]",–,–,> 10 µM
"CS(=O)(=O)NCc1nc(-c2ccc(C(F)(F)F)cc2)n2ccccc12 [Cpd. No. 006, N-((3-(4-(trifluoromethyl)phenyl)imidazo[1,5-a]pyridin-1-yl)methyl)methanesulfonamide]",–,–,1 to 10 µM
"O=C(O)[C@H]1C[C@@H](c2nc(-c3ccc(C(F)(F)F)cc3)c3ccccn32)C1 [Cpd. No. 019, cis-3-(1-(4-(trifluoromethyl)phenyl)imidazo[1,5-a]pyridin-3-yl)cyclobutane-1-carboxylic acid]",–,–,> 10 µM
"O=C(O)[C@@H]1C[C@H]1c1nc(-c2ccc(C(F)(F)F)cc2)c2ccccn12 (relative stereo) [Cpd. No. 012, trans-2-(1-(4-(trifluoromethyl)phenyl)imidazo[1,5-a]pyridin-3-yl)cyclopropane-1-carboxylic acid]",–,–,< 1 µM
"O=C(O)/C=C/c1nc(-c2ccc(C(F)(F)F)cc2)c2ccc(C(F)(F)F)cn12 [Cpd. No. 022, (E)-3-(6-(trifluoromethyl)-1-(4-(trifluoromethyl)phenyl)imidazo[1,5-a]pyridin-3-yl)acrylic acid]",< 1 µM,< 1 µM,< 1 µM
"O=C(O)/C=C/c1nc(-c2ccc(C(F)(F)F)cc2)n2ccccc12 [Cpd. No. 007, (E)-3-(3-(4-(trifluoromethyl)phenyl)imidazo[1,5-a]pyridin-1-yl)acrylic acid]",–,–,< 1 µM
"CCC(=O)NCc1nc(-c2ccc(C(F)(F)F)cc2)n2ccccc12 [Cpd. No. 005, N-((3-(4-(trifluoromethyl)phenyl)imidazo[1,5-a]pyridin-1-yl)methyl)propionamide]",–,–,> 10 µM
"O=C1CC(c2nc(-c3ccc(C(F)(F)F)cc3)c3ccccn23)=NO1 [Cpd. No. 030, 3-(1-(4-(trifluoromethyl)phenyl)imidazo[1,5-a]pyridin-3-yl)isoxazol-5(4H)-one]",–,–,1 to 10 µM
"O=C(O)C1CN(c2nc(-c3ccc(C(F)(F)F)cc3)c3ccccn23)C1 [Cpd. No. 017, 1-(1-(4-(trifluoromethyl)phenyl)imidazo[1,5-a]pyridin-3-yl)azetidine-3-carboxylic acid]",–,–,> 10 µM
"C=CC(=O)NCc1nc(-c2ccc(C(F)(F)F)cc2)n2ccccc12 [Cpd. No. 001, N-((3-(4-(trifluoromethyl)phenyl)imidazo[1,5-a]pyridin-1-yl)methyl)acrylamide]",< 1 µM,< 1 µM,< 1 µM
"O=C(O)CNc1nc(-c2ccc(C(F)(F)F)cc2)c2ccccn12 [Cpd. No. 021, (1-(4-(trifluoromethyl)phenyl)imidazo[1,5-a]pyridin-3-yl)glycine]",–,–,> 10 µM
"O=C(O)CCc1nc(-c2ccc(C(F)(F)F)cc2)c2ccccn12 [Cpd. No. 023, 3-(1-(4-(trifluoromethyl)phenyl)imidazo[1,5-a]pyridin-3-yl)propanoic acid]",–,–,< 1 µM
"O=C(O)Cc1nc(-c2ccc(C(F)(F)F)cc2)c2ccccn12 [Cpd. No. 015, 2-(1-(4-(trifluoromethyl)phenyl)imidazo[1,5-a]pyridin-3-yl)acetic acid]",–,–,> 10 µM
"O=C(O)C1CCN1c1nc(-c2ccc(C(F)(F)F)cc2)c2ccccn12 (stereo not shown) [Cpd. No. 016, 1-(1-(4-(trifluoromethyl)phenyl)imidazo[1,5-a]pyridin-3-yl)azetidine-2-carboxylic acid]",–,–,> 10 µM
"O=C(O)/C=C/c1nc(-c2ccc(C(F)(F)F)cc2)c2ccccn12 [Cpd. No. 008, (E)-3-(1-(4-(trifluoromethyl)phenyl)imidazo[1,5-a]pyridin-3-yl)acrylic acid]",< 1 µM,< 1 µM,< 1 µM
"CNS(=O)(=O)/C=C/c1nc(-c2ccc(C(F)(F)F)cc2)c2ccccn12 [Cpd. No. 027, (E)-N-methyl-2-(1-(4-(trifluoromethyl)phenyl)imidazo[1,5-a]pyridin-3-yl)ethene-1-sulfonamide]",< 1 µM,< 1 µM,< 1 µM
"CC(=O)NCc1nc(-c2ccc(C(F)(F)F)cc2)n2cc(C(F)(F)F)ccc12 [Cpd. No. 010, N-((6-(trifluoromethyl)-3-(4-(trifluoromethyl)phenyl)imidazo[1,5-a]pyridin-1-yl)methyl)acetamide]",–,–,> 10 µM
